What all share (type): functional
Assay [1] has as its system Rattus norvegicus. In words: Antihypertensive activity rating in conscious SHR after 24 hr post dose at 10 mg/kg (po).
Assay [2] has as its system Rattus norvegicus. The assay can be described thus: Antihypertensive activity rating in conscious SHR after 3 hr post dose at 10 mg/kg (po).
Assay [3] deals with Rattus norvegicus. In words: Antihypertensive activity rating in conscious SHR after 1 hr post dose at 10 mg/kg (po).
For assay [4], the system named is Rattus norvegicus. In words: Maximum percent decrease in blood pressure in SHR dosed at 10 mg/kg (hour post dose in parentheses).
The test system of assay [5] is Rattus norvegicus. The assay can be described thus: Antihypertensive activity rating in conscious SHR after 6 hr post dose at 10 mg/kg (po).
In assay [6] the test system is Rattus norvegicus. In words: Antihypertensive activity rating in conscious SHR after 1 hr post dose at 3 mg/kg (po).
For assay [7], the system named is Rattus norvegicus. In words: Antihypertensive activity rating in conscious SHR after 24 hr post dose at 0.3 mg/kg (po).
Assay [8] has as its system Rattus norvegicus. The assay can be described thus: Antihypertensive activity rating in conscious SHR after 24 hr post dose at 3 mg/kg (po).
In assay [9] the test system is Rattus norvegicus. The assay can be described thus: Antihypertensive activity rating in conscious SHR after 3 hr post dose at 0.3 mg/kg (po).
The subject of assay [10] is Rattus norvegicus. The assay can be described thus: Antihypertensive activity rating in conscious SHR after 3 hr post dose at 1 mg/kg (po).
Assay [11] concerns Rattus norvegicus. In words: Antihypertensive activity rating in conscious SHR after 3 h post dose at 3 mg/kg (po).
Assay [12] relates to Rattus norvegicus. In words: Antihypertensive activity rating in conscious SHR after 6 hr post dose at 0.3 mg/kg (po).
Assay [13] deals with Rattus norvegicus. The assay can be described thus: Antihypertensive activity rating in conscious SHR after 6 hr post dose at 1 mg/kg (po).
Assay [14] has as its system Rattus norvegicus. The assay can be described thus: Antihypertensive activity rating in conscious SHR after 6 hr post dose at 3 mg/kg (po).
Assay [15] deals with Rattus norvegicus. In words: Antihypertensive activity rating in conscious SHR after 1 hr post dose at 0.3 mg/kg (po).
For assay [16], the system named is Rattus norvegicus. In words: Antihypertensive activity rating in conscious SHR after 1 hr post dose at 1 mg/kg (po).
Assay [17] concerns Rattus norvegicus. The assay can be described thus: Maximum percent decrease in blood pressure in SHR dosed at 1 mg/kg (hour post dose in parentheses).
Assay [18] deals with Rattus norvegicus. In words: Maximum percent decrease in blood pressure in SHR dosed at 0.3 mg/kg (hour post dose in parentheses).
The subject of assay [19] is Rattus norvegicus. The assay can be described thus: Maximum percent decrease in blood pressure in SHR dosed at 3 mg/kg (hour post dose in parentheses).
Assay [20] relates to Rattus norvegicus. The assay can be described thus: Antihypertensive activity rating in conscious SHR after 24 hr post dose at 1 mg/kg (po).

Each structure is given as a SMILES string.

In the case of `COc1cc2nc(N3CCN(C(=O)/C=C/c4ccc(OC)c(OC)c4OC)CC3)nc(N)c2cc1OC`, the Activity was determined as 0 in [1], 1 in [2], 0 in assay [3] and 1 in [5]. Also, the Decrease in assay [4] is reported as 16%.

Turning to `COc1cc2nc(N3CCN(C(=O)/C=C/c4cccc(C(F)(F)F)c4)CC3)nc(N)c2cc1OC`, the Activity in assay [2] and in assay [5] was 0 each time.

Consider `COc1cc2nc(N3CCN(C(=O)/C=C/c4cccs4)CC3)nc(N)c2cc1OC`, for which the Activity is reported as 2 in [6]; 0 in assay [7]; 0 in assay [8]; 0 in [9]; 1 in [10]; 1 in [11]. Besides, the Activity was determined as 1 in assay [12]; 1 in [13]; 2 in [14]; 0 in [15]; 1 in assay [16]; 0 in assay [20]. The Decrease in assay [17] amounted to 14%; in [18] it was 10%; in assay [19], 24%.

For the molecule `COc1cc2nc(N3CCN(C(=O)/C=C/c4ccc(Cl)c(Cl)c4)CC3)nc(N)c2cc1OC`, the Activity in [2] and in assay [5] was 0 in each case.

Take `COc1cc2nc(N3CCN(C(=O)/C=C/c4ccccc4C)CC3)nc(N)c2cc1OC`: the Activity in assay [6] is given as 1; in assay [1] it was 0; in assay [8] it was 0; in assay [2], 2; in assay [10] it was 0; in assay [11], 1. Besides, the Activity in assay [13] worked out at 0; in [14], 1; in assay [16] it was 1; in [5] it was 2; in [20] it was 0. The Decrease in assay [17] is listed as 12%; in assay [4], 23%; in assay [19] it was 18%.

For `COc1cc2nc(N3CCN(C(=O)/C=C/c4ccc(C(C)C)cc4)CC3)nc(N)c2cc1OC`, the Activity in [2] and in assay [5] was 0 throughout.

As to `COc1cc2nc(N3CCN(C(=O)/C=C/c4cccc(C)c4)CC3)nc(N)c2cc1OC`, the Activity in assay [1] was found to be 0; in assay [2], 1; in [3], 0; in assay [5], 1. Moreover, the Decrease in [4] amounted to 18%.

On to `COc1cc2nc(N3CCN(C(=O)/C=C/c4ccoc4)CC3)nc(N)c2cc1OC`, for which the Activity is listed as 1 in assay [6], 0 in assay [8], 1 in assay [11] and 1 in assay [14]. Besides, the Decrease in [19] was determined as 19%.

Turning to `CO.COc1cc(/C=C/C(=O)N2CCN(c3nc(N)c4cc(OC)c(OC)cc4n3)CC2)cc(OC)c1`, the Activity in assay [1], in [2], in [3] and in assay [5] was 0 in each case.

As for `COc1cc2nc(N3CCN(C(=O)/C=C/c4ccc(C)o4)CC3)nc(N)c2cc1OC.Cl`, the Activity in assay [1] is given as 0; in [2], 2; in assay [10], 0; in [13], 0; in assay [3] it was 1; in [16], 0. Besides, the Activity is listed as 1 in assay [5] and 0 in assay [20]. For the same molecule, in assay [4], the Decrease came to 22%.

As to `COc1cc2nc(N3CCN(C(=O)/C=C/c4sccc4C)CC3)nc(N)c2cc1OC.Cl`, the Activity is reported as 1 in [1]; 2 in assay [2]; 1 in [10]; 1 in [13]; 2 in assay [3]; 1 in [16]. The values for the Activity in assay [5] and in [20] were 2 and 0, respectively. Moreover, the Decrease in assay [17] was found to be 10%; in assay [4], 25%.

Take `COc1cc2nc(N3CCN(C(=O)/C(C)=C/c4ccccc4)CC3)nc(N)c2cc1OC.Cl`: the Activity in assay [6] is listed as 1; in assay [8] it was 0; in assay [10], 0; in assay [11], 0; in assay [13] it was 1; in [14], 1. The Activity in assay [16] and in [20] was 0 in each case. Moreover, the Decrease is 12% in [17] and 16% in assay [19].

Regarding `COc1cc2nc(N3CCN(C(=O)/C=C/c4ccc(Br)cc4)CC3)nc(N)c2cc1OC.Cl`, the Activity was found to be 0 in assay [1], 1 in assay [2], 0 in [3] and 1 in assay [5]. Further, the Decrease in [4] is listed as 12%.

On to `COc1cc2nc(N3CCN(C(=O)/C=C/c4ccc(C)cc4)CC3)nc(N)c2cc1OC.Cl`, for which the Activity worked out at 0 in assay [6], 0 in [8], 1 in assay [11] and 0 in [14]. Also, the Decrease in assay [19] is 10%.

Consider `COc1cc2nc(N3CCN(C(=O)/C=C/c4ccc(Cl)cc4)CC3)nc(N)c2cc1OC.Cl`, for which the Activity was determined as 0 in [2] and 1 in assay [5]. Further, in [4], the Decrease is given as 10%.

Consider `CCOc1ccccc1/C=C/C(=O)N1CCN(c2nc(N)c3cc(OC)c(OC)cc3n2)CC1.Cl`, for which the Activity in [2] and in [3] was 0 each time.

For `COc1cc2nc(N3CCN(C(=O)/C=C/c4ccc(C)s4)CC3)nc(N)c2cc1OC.Cl`, the Activity in assay [6] is 0; in assay [8], 0; in assay [11], 1; in assay [14], 0. Also, the Decrease in assay [19] came to 14%.

For `COc1cccc(/C=C/C(=O)N2CCN(c3nc(N)c4cc(OC)c(OC)cc4n3)CC2)c1.Cl`, the Activity in assay [1] is 0; in assay [2] it was 1; in [5], 1. Also, the Decrease in assay [4] was 12%.

For `COc1cc2nc(N3CCN(C(=O)/C=C/c4ccc(Cl)o4)CC3)nc(N)c2cc1OC.Cl`, the Activity is 1 in assay [6], 0 in assay [8], 1 in [11] and 1 in assay [14]. Moreover, the Decrease in [19] is 17%.

For `COc1cc2nc(N3CCN(C(=O)/C(C)=C/c4ccco4)CC3)nc(N)c2cc1OC.Cl`, the Activity was found to be 1 in assay [6]; 0 in assay [8]; 0 in [10]; 0 in [11]; 1 in [13]; 1 in assay [14]. The Activity in assay [16] and in [20] was 0 in each case. The Decrease in assay [17] turned out to be 15%; in assay [19], 16%.

Turning to `COc1cc2nc(N3CCN(C(=O)/C=C/c4cccc([N+](=O)[O-])c4)CC3)nc(N)c2cc1OC.Cl`, the Activity in [2] and in assay [5] was 0 each time.

Take `COc1ccccc1/C=C/C(=O)N1CCN(c2nc(N)c3cc(OC)c(OC)cc3n2)CC1.Cl`: the Activity in assay [2] and in [5] was 0 in each case.

For the molecule `COc1cc2nc(N3CCN(C(=O)/C=C/c4ccc(Cl)s4)CC3)nc(N)c2cc1OC.Cl`, the Activity in assay [2], in assay [3] and in assay [5] was 1 throughout. Further, the Decrease in [4] turned out to be 12%.

Consider `COc1cc2nc(N3CCN(C(=O)/C(C)=C/c4cccs4)CC3)nc(N)c2cc1OC.Cl`, for which the Activity in assay [6] is given as 3; in assay [8] it was 0; in assay [10] it was 1; in [11], 1; in assay [13], 0; in assay [14] it was 1. The Activity in assay [16] worked out at 1; in [20], 0. Moreover, the results for the Decrease in [17] and in [19] were 14% and 34%, respectively.

Regarding `COc1cc2nc(N3CCN(C(=O)/C=C/c4ccc(OC(C)C)cc4)CC3)nc(N)c2cc1OC.Cl`, the Activity in [1] came out at 0; in assay [2], 1; in assay [3] it was 0; in assay [5], 1. For the same molecule, the Decrease in [4] came out at 19%.

For the molecule `COc1ccc(/C=C/C(=O)N2CCN(c3nc(N)c4cc(OC)c(OC)cc4n3)CC2)cc1`, the Activity is 0 in assay [6]; 0 in assay [1]; 0 in assay [8]; 2 in [2]; 1 in assay [10]; 1 in [11]. For the same molecule, the Activity in assay [13] is reported as 1; in assay [14] it was 2; in assay [3], 1; in [16] it was 0; in [5] it was 2; in assay [20], 0. Moreover, the Decrease in assay [17] was 15%; in assay [4] it was 23%; in assay [19], 20%.

Source of the values: ChEMBL document CHEMBL1122489, “Pyrimidine derivatives. 4. Synthesis and antihypertensive activity of 4-amino-2-(4-cinnamoylpiperazino)-6,7-dimethoxyquinazoline derivatives” (J Med Chem, 1983).
